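Protocol summary: plate cells (96-well), add compound at 5 concentrations, incubate 48 h, interpolate endpoints linearly. GI50 is the concentration that inhibits growth by half. Definition used: TGI = concentration required for complete inhibition of growth.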
Assays:
Test in all cases: inhibition of tumour cell growth, NCI panel, 48 h
SW-620 colon = system: SW-620 colon
SF-268 CNS = system: SF-268 CNS
CCRF-CEM leukemia = system: CCRF-CEM leukemia
NCI-H522 lung = system: NCI-H522 lung
NCI-H460 lung = system: NCI-H460 lung
M14 melanoma = system: M14 melanoma
ACHN renal = system: ACHN renal
MDA-N = system: MDA-N
T-47D breast = system: T-47D breast
HCT-15 colon = system: HCT-15 colon
A498 renal = system: A498 renal

Structure (SMILES) | TGI (SW-620 colon) | TGI (SF-268 CNS) | TGI (CCRF-CEM leukemia) | TGI (NCI-H522 lung) | TGI (NCI-H460 lung) | TGI (M14 melanoma) | TGI (ACHN renal) | TGI (MDA-N) | TGI (T-47D breast) | TGI (HCT-15 colon) | TGI (A498 renal) | GI50 (SW-620 colon) | GI50 (HCT-15 colon) | GI50 (SF-268 CNS) | GI50 (CCRF-CEM leukemia) | GI50 (M14 melanoma) | GI50 (ACHN renal) | GI50 (A498 renal)
CCOC(=O)C1=C(C)N(c2ccccc2)C2=C(C(=O)N(c3ccccc3)C2c2ccccc2)C1c1ccccc1 (stereo not drawn) | > 100 µM | > 100 µM | > 100 µM | > 100 µM | > 100 µM | > 100 µM | > 100 µM | – | – | – | – | – | – | – | – | – | – | –
O=c1[nH]c2nc3ccccc3c(=O)n2/c1=C/c1ccc(O)cc1 | 56.4 µM | > 100 µM | > 100 µM | > 100 µM | – | > 100 µM | > 100 µM | > 100 µM | > 100 µM | > 100 µM | – | – | – | – | – | – | – | –
c1ccc(C[P+]2(c3ccccc3)c3ccccc3-c3ccccc32)cc1 | > 100 µM | > 100 µM | > 100 µM | > 100 µM | – | > 100 µM | – | > 100 µM | – | > 100 µM | – | – | – | – | – | – | – | –
CO[C@@H](C(=O)OC1C=CC2(CC1)C(=O)N(C)c1ccccc12)c1ccccc1 (stereo partly drawn) | > 100 µM | – | > 100 µM | – | > 100 µM | > 100 µM | > 100 µM | > 100 µM | > 100 µM | > 100 µM | > 100 µM | – | – | – | – | – | – | –
O=C(NS(=O)(=O)Nc1ccc(Cl)cc1)OCc1ccc(Cl)cc1Cl | > 100 µM | 20.6 µM | > 100 µM | – | 29.9 µM | > 100 µM | > 100 µM | 50.3 µM | – | > 100 µM | 38.8 µM | – | – | – | – | – | – | –
O=C(/C=C/c1ccccc1)/C=C/c1ccccc1O | 23.8 µM | 79.4 µM | 48.1 µM | 33.3 µM | 39.7 µM | 50.7 µM | 42.1 µM | – | – | 32.8 µM | 70.9 µM | – | – | – | – | – | – | –
Clc1cc(N/N=C(/c2ccccc2)c2ncccn2)ncn1 | > 100 µM | > 100 µM | 73.9 µM | 5.51 µM | 46.6 µM | > 100 µM | 22.9 µM | > 100 µM | – | > 100 µM | – | – | – | – | – | – | – | –
C[N+](C)(C)CC(=O)N/N=c1\cc(C(=O)Nc2ccc(N=O)cc2C#N)oc2cc(O)ccc12 | > 100 µM | > 100 µM | > 100 µM | > 100 µM | > 100 µM | > 100 µM | > 100 µM | – | – | > 100 µM | > 100 µM | – | – | – | – | – | – | –
O=c1oc2ccccc2c(O)c1C(c1cc(OCc2ccccc2)cc(OCc2ccccc2)c1)c1c(O)c2ccccc2oc1=O | > 43.8 µM | 33.3 µM | > 22.5 µM | 37.9 µM | 11 µM | 23 µM | 7.99 µM | – | 38.1 µM | 11.8 µM | 32.1 µM | – | – | – | – | – | – | –
O=C1O[C@@H](c2ccccc2)C[C@@H]1CN1CCOCC1 | > 100 µM | > 100 µM | > 100 µM | > 100 µM | > 100 µM | > 100 µM | > 100 µM | – | – | > 100 µM | > 100 µM | – | – | – | – | – | – | –
O=C1CC2(C[C@@H]3CCCCCCCCC[C@@H](C3)C2)N1 (stereo partly drawn) | 33.8 µM | 39.8 µM | 37.6 µM | 33.1 µM | 38.4 µM | 28.8 µM | 29.3 µM | – | – | 34 µM | 30.9 µM | – | – | – | – | – | – | –
N#C/C(=C\NC(=S)Nc1ccc(S(=O)(=O)Nc2ccccn2)cc1)C(N)=O | > 100 µM | > 100 µM | > 100 µM | > 100 µM | > 100 µM | > 100 µM | > 100 µM | > 100 µM | – | > 100 µM | > 100 µM | – | – | – | – | – | – | –
N#CCCN(c1ccc(C=Nc2cccc([N+](=O)[O-])c2)cc1)S(=O)(=O)c1ccccc1 | > 100 µM | > 100 µM | > 100 µM | > 100 µM | – | > 100 µM | – | – | – | – | – | – | – | – | – | – | – | –
COC1O[C@H]2CCN(C(=O)OCc3ccccc3)[C@H]2[C@H]1OCc1ccccc1 (stereo partly drawn) | > 100 µM | > 100 µM | > 100 µM | > 100 µM | > 100 µM | > 100 µM | > 100 µM | – | – | > 100 µM | > 100 µM | – | – | – | – | – | – | –
COC(=O)C1=C(C(=O)OC)C2OC1C1C2C2(C)C(C)=C(C)C1(C)S2=O (stereo not drawn) | 12.6 µM | 28.9 µM | – | 6.49 µM | 36.3 µM | 27.7 µM | 12.9 µM | > 50.3 µM | 22.2 µM | 20.5 µM | 68.4 µM | – | – | – | – | – | – | –
COc1ccc(C2C(Cl)C(=O)N2NC(=O)c2ccc(NC(C)=O)cc2)cc1 (stereo not drawn) | > 100 µM | > 100 µM | > 100 µM | > 100 µM | > 100 µM | > 100 µM | > 100 µM | – | – | > 100 µM | > 100 µM | – | – | – | – | – | – | –
Cc1c(Cl)cccc1NC(=O)C(=O)C1C(=O)CC(C)(C)CC1=O | > 100 µM | > 100 µM | > 100 µM | > 100 µM | > 100 µM | > 100 µM | > 100 µM | – | – | > 100 µM | > 100 µM | – | – | – | – | – | – | –
Nc1nc2ncc(SCc3ccc(C(=O)NC(CCC(=O)O)C(=O)O)cc3)cc2c(=O)[nH]1 (stereo not drawn) | > 100 µM | > 100 µM | – | > 100 µM | > 100 µM | > 100 µM | > 100 µM | > 100 µM | – | > 100 µM | > 100 µM | – | – | – | – | – | – | –
CCOC(=O)C(OCC1CC=CCC1)Sc1ccccc1 (stereo not drawn) | > 100 µM | > 100 µM | > 100 µM | > 100 µM | > 100 µM | > 100 µM | > 100 µM | – | – | > 100 µM | > 100 µM | – | – | – | – | – | – | –
CCN(CC)CCn1c2cc3c(cc2c(=O)c2cccnc21)OCCO3 | > 10 µM | > 10 µM | > 10 µM | > 10 µM | – | > 10 µM | > 10 µM | > 10 µM | > 10 µM | > 10 µM | – | – | – | – | – | – | – | –
COc1ccc2nc(-c3ccc(OCc4ccccc4)cc3)ccc2c1 | > 100 µM | > 100 µM | > 100 µM | > 100 µM | > 100 µM | > 100 µM | > 100 µM | – | – | – | – | – | – | – | – | – | – | –
N#CC1=C(N)OC2=C(CSc3ccccc32)C1c1ccc(Br)cc1 (stereo not drawn) | 23.8 µM | 25.6 µM | 6.83 µM | – | 26.8 µM | 39.8 µM | – | 14.4 µM | 25.8 µM | 24.5 µM | 27.2 µM | – | – | – | – | – | – | –
CCCCCCCCCC[C@@H](O)[C@H]1CC[C@H]([C@H]2CC[C@H]([C@H](O)CCCCCCCCCC[C@@H]3CC(CC(C)=O)C(=O)O3)O2)O1 (stereo partly drawn) | > 50 µM | > 50 µM | > 50 µM | > 50 µM | > 50 µM | > 50 µM | > 50 µM | – | > 50 µM | > 50 µM | > 50 µM | 5.19 µM | 7.21 µM | 4.95 µM | 1740 nM | 5.29 µM | 422 nM | 7.44 µM

Source: PubChem BioAssay (NCI)
